The source of these data is PMC7392643, “Antibiotic fidaxomicin is an RdRp inhibitor as a potential new therapeutic agent against Zika virus” (BMC Medicine, 2020).

Series [1] concerns the target T1, ZIKV NS5 full-length protein (Zika virus, UniProt A0A024B7W1).
T1 construct: NS5 (amino acids 1 to 903); His tag (8x histidine) (N); made in house; host or cells: Escherichia coli (Rosetta)
The series can be described thus: SPR (BIAcore) binding to ZIKV NS5 full-length protein. Conditions: qualitative. Here is the method:
(§1) The cDNA fragment of ZIKV (ZG-01 strain) NS5 (amino acids 1 to 903), RdRp (amino acids 272 to 903), or DENV2 NS5 (amino acids 1 to 900) containing an N-terminal His tag sequence was cloned into a pET-30a-mutant vector. For protein expression, the plasmids were transformed into Rosetta™ competent cells (TIANGEN BIOTECH Co., Ltd., Beijing, China), respectively. […] Mass spectrometry was performed by Shanghai Applied Protein Technology Co. Ltd. (Shanghai, China). The concentration of a targeted protein was measured by SDS-PAGE using BSA (Sigma, St. Louis, MO) as a standard.
Surface plasmon resonance (SPR) experiments were performed in a BIAcore T100 device (BIAcore Inc., Uppsala, Sweden) using CM5 sensor chips (General Electric Company, GE) according to the protocol provided by the manufacturer. Briefly, recombinant ZIKV NS5 protein, RdRp protein, or DENV2 NS5 protein was immobilized on a CM5 chip, respectively. Different concentrations of fidaxomicin or ribavirin were injected at a flow rate of 30 μL/min for 3 min. Subsequently, data were collected for a 3-min association followed by a 20-min dissociation. The chip was regenerated by injecting 10 μL of 15 mM NaOH for 20 s. […] The binding kinetics was analyzed with the software BIAevaluation version 3.1 using a 1:1 Langmuir binding model. The Kd was calculated as previously described.
On the technique in general: In SPR one partner is held on a chip, and binding of the other changes the refractive index at the surface.

The next series has as its target T2, ZIKV RdRp protein (Zika virus, UniProt A0A024B7W1).
T2 construct: RdRp (amino acids 272 to 903); His tag (8x histidine) (N); made in house; host or cells: Escherichia coli (Rosetta)
The series can be described thus: SPR (BIAcore) binding to ZIKV RdRp protein. The settings on record: qualitative. The procedure:
as §1
Surface plasmon resonance (SPR) experiments were performed in a BIAcore T100 device (BIAcore Inc., Uppsala, Sweden) using CM5 sensor chips (General Electric Company, GE) according to the protocol provided by the manufacturer. Briefly, recombinant ZIKV NS5 protein, RdRp protein, or DENV2 NS5 protein was immobilized on a CM5 chip, respectively. Different concentrations of fidaxomicin or ribavirin were injected at a flow rate of 30 μL/min for 3 min. Subsequently, data were collected for a 3-min association followed by a 20-min dissociation. The chip was regenerated by injecting 10 μL of 15 mM NaOH for 20 s. All procedures were run in 1% DMSO PBS-P20 (GE) as a running buffer. The binding kinetics was analyzed with the software BIAevaluation version 3.1 using a 1:1 Langmuir binding model. The Kd was calculated as previously described.

The test system of a further series is ZIKV ZG-01 strain. The series can be described thus: In vitro antiviral assay, plaque assay, ZIKV ZG-01. Conditions: for EC50 / EC90: Zika virus. The procedure:
The anti-ZIKV activity of fidaxomicin and ribavirin was evaluated in vitro by plaque assay. Various cell lines, including SNB19 (6 × 10^4/well, 10% FBS DMEM), A172 (7 × 10^4/well, 10% FBS DMEM), Vero (6 × 10^4/well 10% FBS DMEM), Huh7 (7 × 10^4/well, 10% FBS DMEM), HUVECs (7 × 10^4/well, 15% FBS M199 medium supplemented with 2 mM L-glutamine, 0.02 mg/mL endothelial cell growth supplement, and 0.05 mg/mL heparin), and A549 (6 × 10^4/well, 5% FBS DMEM), were plated in 12-well plates and allowed to attach overnight, followed by infection with ZIKV (ZG-01 strain or MR766 strain, respectively, at indicated MOI) in the presence of different concentrations of fidaxomicin, ribavirin, or vehicle control for 1 h, followed by two washes with 1 × PBS and incubated with fresh medium (without virus) consisting of corresponding concentrations of the compounds for further 48 h. The cell supernatants were collected to quantify ZIKV infection by plaque assay as previously described or by RT-qPCR. […] The anti-DENV activity of fidaxomicin was evaluated in vitro by RT-qPCR.

The next series concerns ZIKV MR766 strain. The series can be described thus: In vitro antiviral assay, plaque assay, ZIKV MR766. It is filed as cell-based. The settings on record: Zika virus, 48 h.
The next series in a line: in vitro. Conditions: African green monkey.

T1 sequence (A0A024B7W1 2521-3423): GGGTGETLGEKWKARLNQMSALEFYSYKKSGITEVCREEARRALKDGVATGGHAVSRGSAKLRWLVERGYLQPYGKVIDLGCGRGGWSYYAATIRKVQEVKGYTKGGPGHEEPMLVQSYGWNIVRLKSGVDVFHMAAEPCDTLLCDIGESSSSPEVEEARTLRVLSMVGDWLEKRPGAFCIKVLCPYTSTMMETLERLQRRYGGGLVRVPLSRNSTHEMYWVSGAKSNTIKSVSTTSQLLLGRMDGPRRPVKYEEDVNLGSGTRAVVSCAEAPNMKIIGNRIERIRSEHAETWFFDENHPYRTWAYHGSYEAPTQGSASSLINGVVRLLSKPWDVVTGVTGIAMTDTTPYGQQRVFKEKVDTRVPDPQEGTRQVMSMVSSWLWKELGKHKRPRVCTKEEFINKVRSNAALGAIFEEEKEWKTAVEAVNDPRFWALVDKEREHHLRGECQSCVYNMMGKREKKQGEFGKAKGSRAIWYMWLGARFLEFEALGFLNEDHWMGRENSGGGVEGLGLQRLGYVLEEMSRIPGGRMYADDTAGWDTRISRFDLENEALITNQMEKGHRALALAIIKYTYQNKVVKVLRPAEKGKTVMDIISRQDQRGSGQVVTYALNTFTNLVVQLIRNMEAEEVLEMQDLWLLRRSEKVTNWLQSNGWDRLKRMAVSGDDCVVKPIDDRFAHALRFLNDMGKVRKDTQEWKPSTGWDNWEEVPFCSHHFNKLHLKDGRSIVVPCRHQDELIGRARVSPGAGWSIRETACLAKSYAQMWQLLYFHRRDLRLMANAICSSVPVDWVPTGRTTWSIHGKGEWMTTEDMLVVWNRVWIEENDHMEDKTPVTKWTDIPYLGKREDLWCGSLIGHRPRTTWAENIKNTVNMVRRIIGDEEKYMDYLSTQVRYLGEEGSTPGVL
T2 sequence (A0A024B7W1 2792-3423): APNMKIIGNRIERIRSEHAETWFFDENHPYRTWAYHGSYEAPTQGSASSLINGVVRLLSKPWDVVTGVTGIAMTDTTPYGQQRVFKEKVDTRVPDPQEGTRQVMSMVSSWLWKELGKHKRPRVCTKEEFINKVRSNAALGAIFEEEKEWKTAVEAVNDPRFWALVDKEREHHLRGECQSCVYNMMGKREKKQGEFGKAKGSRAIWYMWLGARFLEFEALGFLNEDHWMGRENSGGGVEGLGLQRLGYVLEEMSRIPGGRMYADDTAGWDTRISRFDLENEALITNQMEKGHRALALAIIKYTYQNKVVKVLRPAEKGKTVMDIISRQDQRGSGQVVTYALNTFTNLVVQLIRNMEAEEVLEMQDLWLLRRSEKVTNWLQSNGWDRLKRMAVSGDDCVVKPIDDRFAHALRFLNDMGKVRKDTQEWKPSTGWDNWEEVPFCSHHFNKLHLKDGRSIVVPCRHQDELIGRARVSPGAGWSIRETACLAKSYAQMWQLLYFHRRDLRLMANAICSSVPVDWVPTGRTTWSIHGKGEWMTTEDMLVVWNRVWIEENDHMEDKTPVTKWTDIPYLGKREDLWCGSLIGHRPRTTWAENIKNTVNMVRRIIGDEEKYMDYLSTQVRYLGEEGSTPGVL
Experimental for ZIKV MR766 strain: Various cell lines, including SNB19 (6 × 10^4/well, 10% FBS DMEM), A172 (7 × 10^4/well, 10% FBS DMEM), Vero (6 × 10^4/well 10% FBS DMEM), Huh7 (7 × 10^4/well, 10% FBS DMEM), HUVECs (7 × 10^4/well, 15% FBS M199 medium supplemented with 2 mM L-glutamine, 0.02 mg/mL endothelial cell growth supplement, and 0.05 mg/mL heparin), and A549 (6 × 10^4/well, 5% FBS DMEM), were plated in 12-well plates and allowed to attach overnight, followed by infection with ZIKV (ZG-01 strain or MR766 strain, respectively, at indicated MOI) in the presence of different concentrations of fidaxomicin, ribavirin, or vehicle control for 1 h, followed by two washes with 1 × PBS and incubated with fresh medium (without virus) consisting of corresponding concentrations of the compounds for further 48 h. The cell supernatants were collected to quantify ZIKV infection by plaque assay as previously described [47] or by RT-qPCR.

Broadly, the EC50 is the concentration at which the effect is half-maximal. The term EC90 denotes the concentration at which the effect reaches the 90% level. As to `NC(=O)c1ncn([C@@H]2O[C@H](CO)[C@@H](O)[C@H]2O)n1` [Ribavirin, ribavirin], the “binding to ZIKV NS5 protein (SPR)” value in series [1] was “very weak interaction”. For the same molecule, the “binding to ZIKV RdRp protein (SPR)” value at ZIKV RdRp protein is reported as “weak”. In addition, the “efficacy against ZIKV infection under non-cytotoxic concentration” value in the series with ZIKV ZG-01 strain (SNB19 cells) is listed as “far less effective”. The concentration for a half-maximal effect (EC50) in the series on ZIKV ZG-01 strain (A549, 48 h) was 33.2 ± 3.4 µM; in the series on ZIKV ZG-01 strain (Huh-7, 48 h), 12.7 ± 2.3 µM; in the series on ZIKV ZG-01 strain (SNB-19, 48 h) it was over 100 µM; in the series with ZIKV ZG-01 strain (Vero, 48 h), over 100 µM; with ZIKV MR766 strain (A549 cells), 35.2 ± 5.2 µM; with ZIKV MR766 strain (Huh-7, Huh7 cells), 15.6 ± 2.1 µM. In addition, the EC50 was over 100 µM in the series with ZIKV MR766 strain (SNB-19, SNB19 cells) and over 100 µM with ZIKV MR766 strain (Vero cells). Further, the EC90 with ZIKV ZG-01 strain (A549, 48 h) is 71.6 ± 6.2 µM; in the series on ZIKV ZG-01 strain (Huh-7, 48 h), 54.3 ± 3.5 µM; in the series on ZIKV ZG-01 strain (SNB-19, 48 h), over 100 µM; with ZIKV ZG-01 strain (Vero, 48 h) it was over 100 µM; in the series with ZIKV MR766 strain (A549 cells) it was 74.6 ± 8.5 µM; in the series with ZIKV MR766 strain (Huh-7, Huh7 cells), 58.3 ± 3.2 µM. The EC90 was over 100 µM in the series on ZIKV MR766 strain (SNB-19, SNB19 cells) and over 100 µM with ZIKV MR766 strain (Vero cells). This molecule returned a CC50 at 48 h in “in vitro” of 486 ± 20.1 µM.
